Source: patent US9199028B2, “Use of entrained neutrophils to treat metastatic and micrometastatic disease in at risk patients” (MEMORIAL SLOAN-KETTERING CANCER CENTER, priority 2010, dated 2015)
Entries after “also recorded” stand apart in the source; their conditions may differ.

B1: CCL4: CC chemokine (protein, UniProt P13236 24-92, looked up)
C-C motif chemokine 4: APMGSDPPTACCFSYTARKLPRNFVVDYYETSSLCSQPAVVFQTKRSKQVCADPSESWVQEYVYDLELN
B2: CXCL16: CXC chemokine (protein, UniProt Q9H2A7 30-254, looked up)
C-X-C motif chemokine 16: NEGSVTGSCYCGKRISSDSPPSVQFMNRLRKHLRAYHRCLYYTRFQLLSWSVCGGNKDPWVQELMSCLDLKECGHAYSGIVAHQKHLLPTSPPISQASEGASSDIHTPAQMLLSTLQSTQRPTLPVGSLSSDKELTRPNETTIHTAGHSLAAGPEAGENQKQPEKNAGPTARTSATVPVLCLLAIIFILTAALSYVLCKRRRGQSPQSSPDLPVHYIPVAPDSNT

Tests used:
4T1 cells [1] = assay: In vitro killing assay: naïve mouse neutrophils co-cultured with luciferase labelled 4T1 cells in the presence of chemokines; type: cell-based; details: naïve mouse neutrophils co-cultured with 4T1 cells, chemokine 20 ng/ml, overnight
Text: (§1) Antibodies used for immunohistochemistry—MMP9, F4/80 and CCR2 (all from AbCam), Myeloperoxidase (Dako), Ly-6G and Cd11b (both from BD), and Cleaved Caspase 3 (Cell signalling). Antibodies used for western blotting—Actin (Sigma), CCL2 (AbCam) and CCL5 (R&D) p-SMAD2 (cell signalling). Antibodies used for FACS analysis FITC-Ly-6G, FITC-Cd11b, FITC-F4/80, FITC-Cd34 and FITC-c-Kit (all from BD) and VEGFR1-AP (R&D). Neutrophil Depletion Neutrophil depletion was achieved using daily IP injections of 12.5 μg Rat anti-Gr-1 antibody (BD) or Rat anti-Ly-6G antibody (BD) starting on day 3 post tumour engraftment. Starting on day 14, neutrophil depleting antibodies were administered twice daily. Control mice were injected with […] Rat isotype control (BD). Neutrophil depletion was monitored by manual blood differentials and FACS analysis. Flow Cytometry Peripheral blood was collected into EDTA-coated tubes, washed and resuspended in FACS buffer solution (PBS, 2% heat-inactivated FCS, 5 mM EDTA, and 0.02% sodium azide). The samples were blocked with […] and then incubated with fluorophore-conjugated antibodies. Erythrocytes were then lysed with FACS lysing solution (BD Biosciences) and the cell suspensions were analyzed on a FACSCalibur (BD Biosciences). Colony Formation Assay Female nude mice were orthotopically injected with 5×10^6 puromicin resistant 4T1 cells. On days 7 and 14 post tumour engraftment the mice were sacrificed and perfused with PBS. The lungs and livers were removed, washed with PBS and dissociated with Collagenase A (Roche). The single cell suspension was then plated onto puromicin containing media and selected for 14 day. Colonies were stained with Methylene-Blue and counted manually. Mouse Neutrophil Purification Whole blood was collected by cardiac puncture using heparinized (Sigma) syringe. The blood was diluted with 5 volumes of PBS containing 0.5% BSA and subjected to a discontinuous Histopaque (Sigma) gradient (1.077 and 1.119). Neutrophils were collected from the 1.077-1.119 interface, lymphocytes and monocytes collected from the plasma-1.077 interface. RBCs were eliminated by hypotonic lysis. The cells were washed twice with PBS-BSA and re-suspended in OptiMEM (Invitrogen) 0.5% FBS in a final concentration of 2×10^6 cells/ml. Neutrophil purity and viability were determined visually and were consistently >98%. Human Neutrophil Purification As part of a Memorial Sloan-Kettering Cancer Center institutionally approved protocol, blood samples (˜10 cc) were collected from healthy volunteers or from patients who were already having blood drawn for pre-surgical testing. Patients were consented accordingly as part of the approved protocol. […] Patients had either mastectomies or lumpectomies planned and had blood drawn prior to definitive surgical removal of their primary tumor or chemotherapy. Blood samples were transferred to the lab for analysis no more than 1 hour post-blood draw. Heparinzed blood (20 U/ml final) was mixed with an equal volume of Dextran 500 (3% in saline) and incubated 30 minutes at room temperature. The leukocyte-rich supernatant was layered on top of histopaque 1077 (Sigma) and centrifuged. Neutrophils, collected in the pellet fraction, were resuspended in 10 ml 0.2% NaCl for 30 seconds to remove contaminating erythrocytes. Isotonicity was restored by the addition of 10 ml 1.6% NaCl. Neutrophils were than washed three times in Hanks's balanced salt solution and resuspended in RPMI+FCS2%. In vitro Killing Assay Luciferase labelled cells (5,000/well) were plated on a 96-well, flat bottom white polystyrene tissue culture plate in OptiMEM 0.5% FBS (mouse neutrophils) or RPMI 2% FBS (human neutrophils). 4 hours later, purified neutrophils (100,000/well for mouse neutrophils and 5000 for human neutrophils) were added to the plated tumour cells and co-cultured overnight. […]

MDA-MB-231 cells = assay: In vitro killing assay: human neutrophils co-cultured with luciferase labelled MDA-MB-231 cells; type: cell-based; details: naïve human neutrophils:tumor cells 1:1, chemokine 100 ng/ml (rhG-CSF 20 ng/ml), overnight
Text: Luciferase is under a constitutive promoter so cell death results in a decrease in luciferase activity because there is no transcription/translation of the lucierferase gene. The assay itself requires lysing of the cell to release the luciferase to mix with the luciferin and measure the luminescence. But it isn't that they dying cell releases luciferase. More signal means more luciferase which means more live cells. […]. […] Nave human neutrophils were co-cultured with MDA-MB-231 cells. […] Cells were seeded at a ratio of human neutrophils:human tumor cells=1:1.
as §1, with “NaCl.” for “NaCl. Neutrophils were than washed three times in Hanks's balanced salt solution and resuspended in RPMI+FCS2%. In vitro Killing Assay Luciferase labelled cells (5,000/well) were plated on a 96-well, flat bottom white polystyrene tissue culture plate in OptiMEM 0.5% FBS (mouse neutrophils) or RPMI 2% FBS (human neutrophils). 4 hours later, purified neutrophils (100,000/well for mouse neutrophils and 5000 for human neutrophils) were added to the plated tumour cells and co-cultured overnight.”

4T1 cells [2] = assay: In vitro killing assay: TENs co-cultured with 4T1 cells in the presence of inhibitors or TGF-β; type: cell-based, mouse; details: for TEN mediated in vitro killing of 4T1 cells in the presence of TGF-β: picomolar concentrations (up to 200 pMolar); for neutrophil (TEN) mediated tumour-cell killing in the presence of inhibitor: TENs + 4T1 cells overnight, Apocynin 100 μM, Catalase 1,000 u/ml, Superoxide Dismutase 1,000 u/ml, Taurine 50 mM
Text: as §1

4T1 cells [3] = assay: In vivo stimulation of neutrophils with chemokines, purified neutrophils co-cultured with 4T1 cells; type: cell-based, mouse; details: healthy mice treated in vivo with G-CSF alone or G-CSF plus chemokine
Procedure: A. To test which chemokines may participate in the stimulation of neutrophils, neutrophils purified from healthy mice were co-culture with luciferase labeled 4T1 cells in the presence (20 ng/ml of chemokine) or absence of certain chemokines for an overnight incubation. […] B. To test which chemokines are sufficient for in vivo stimulation of neutrophils healthy mice were treated with G-CSF (to boost neutrophil numbers) and either CCL2, CCL5 or CXCL1. Control mice were treated with G-CSF alone. Neutrophils were purified from these mice and co-cultured with Luciferase-labeled 4T1 cells. […] Conclusion—CCL2 and to a lesser degree CCL5 can stimulate tumor cell killing both in vitro and in vivo.

Molecule	neutrophil mediated killing of 4T1 cells (tumor cell viability by luciferase activity) (4T1 cells [1])	neutrophil cytotoxicity / neutrophil mediated killing of MDA-MB-231 cells (MDA-MB-231 cells)	other results
CCL3: CC chemokine	no significant effect on tumor-cell viability	significantly increase neutrophil cytotoxicity	
CXCL12: CXC chemokine	no significant effect on tumor-cell viability	significantly increase neutrophil cytotoxicity	
TGF-β			TEN mediated in vitro killing of 4T1 cells in the presence of TGF-β (4T1 cells [2]): dramatic inhibitory effect; TEN mediated in vitro killing of 4T1 cells in the presence of TGF-β (4T1 cells [2]; listed as TGF-Beta): dramatically inhibited TENs cytotoxicity towards tumour cells
hCCL5: human CCL5 from R&D, used at 100 ng/ml		induces neutrophil mediated cell killing; also recorded: induce the killing of human MDA-MB-231 in vitro	
CXCL1: CXC chemokine	no significant effect on tumor-cell viability	to a lesser extent CXCL1 significantly increase neutrophil cytotoxicity	viability of 4T1 cells co-cultured with neutrophils purified from chemokine treated mice (4T1 cells [3]): did not induce a reduction in cell viability
Catalase			neutrophil (TEN) mediated tumour-cell killing in the presence of inhibitor (4T1 cells [2]): completely inhibits tumour-cell killing; neutrophil (TEN) mediated tumour-cell killing in the presence of inhibitor (4T1 cells [2]; listed as catalase): completely inhibits cell killing
NCCS(=O)(=O)O [Taurine]			neutrophil (TEN) mediated tumour-cell killing in the presence of inhibitor (4T1 cells [2]): does not inhibit tumour-cell killing; neutrophil (TEN) mediated tumour-cell killing in the presence of inhibitor (4T1 cells [2]; listed as taurine): did not reduce tumour-cell killing
hCCL2: human CCL2 from R&D, used at 100 ng/ml		induces neutrophil mediated cell killing; also recorded: induce the killing of human MDA-MB-231 in vitro	
mCCL2: mouse CCL2 from R&D, used at 20 ng/ml	induces neutrophil mediated cell killing; also recorded: induced tumour cell killing in vitro		
Superoxide Dismutase			neutrophil (TEN) mediated tumour-cell killing in the presence of inhibitor (4T1 cells [2]): does not; neutrophil (TEN) mediated tumour-cell killing in the presence of inhibitor (4T1 cells [2]; listed as superoxide dismutase): did not inhibit cell death
B1	significant reduction in tumor cell viability	but not CCL4 significantly increase neutrophil cytotoxicity	
B2	significant reduction in tumor cell viability	significantly increase neutrophil cytotoxicity	
